Patent publication US20120065187A1 (ALCON RESEARCH, LTD, priority 2008, published 2012)
Structures can show the parent of a compound that is named as a salt.

Experiments:
human H4 = target: T1, human H4 (Homo sapiens, UniProt Q9H3N8); experiment: In vitro histamine receptor cell-based assay (aequorin bioluminescence), H4 antagonism; details: CHO-K1 cells expressing human H4, aequorin and Gα16; histamine at EC80; read-out: H4 Antagonist EC50
T1 construct: host or cells: CHO-K1
Procedure, shortened: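 CHO-K1 cells stably expressing human H4, Gα16 and mitochondrial aequorin, loaded with 5 μM coelenterazine-h, preincubated 15 min at room temperature with compound, then challenged with histamine at EC80.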

human H1 = target: T2, human H1 (Homo sapiens, UniProt P35367); experiment: In vitro histamine receptor cell-based assay (aequorin bioluminescence), H1 antagonism; details: CHO-K1 cells expressing human H1 and aequorin; histamine at EC80; read-out: H1 Antagonist EC50
T2 construct: host or cells: CHO-K1
T2 sequence (P35367 whole entry): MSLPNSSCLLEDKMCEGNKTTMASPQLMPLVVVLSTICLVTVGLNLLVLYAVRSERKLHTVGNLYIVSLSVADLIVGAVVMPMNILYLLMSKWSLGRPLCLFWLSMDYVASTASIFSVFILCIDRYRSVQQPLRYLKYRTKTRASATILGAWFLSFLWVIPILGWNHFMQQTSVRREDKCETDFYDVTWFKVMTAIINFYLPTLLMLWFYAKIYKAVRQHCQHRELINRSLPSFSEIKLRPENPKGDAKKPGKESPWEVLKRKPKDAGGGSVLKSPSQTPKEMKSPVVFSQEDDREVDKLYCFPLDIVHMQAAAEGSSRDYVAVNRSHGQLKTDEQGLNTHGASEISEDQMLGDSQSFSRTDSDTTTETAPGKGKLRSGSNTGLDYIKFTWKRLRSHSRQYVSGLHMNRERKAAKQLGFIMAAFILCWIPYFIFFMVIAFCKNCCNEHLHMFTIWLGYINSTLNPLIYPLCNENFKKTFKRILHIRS
Procedure, shortened: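 Stable CHO-K1 lines expressing human H1 or H4 (H4 with Gα16) plus mitochondrial aequorin, loaded 4 h with 5 μM coelenterazine-h at ~21 °C. Compounds preincubated 15 min, then histamine at EC80 added; bioluminescence decrease (AUC or max–min) expressed as % of positive control (diphenhydramine for H1, JNJ7777120 for H4, 10 μM).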

T1 sequence (Q9H3N8 whole entry): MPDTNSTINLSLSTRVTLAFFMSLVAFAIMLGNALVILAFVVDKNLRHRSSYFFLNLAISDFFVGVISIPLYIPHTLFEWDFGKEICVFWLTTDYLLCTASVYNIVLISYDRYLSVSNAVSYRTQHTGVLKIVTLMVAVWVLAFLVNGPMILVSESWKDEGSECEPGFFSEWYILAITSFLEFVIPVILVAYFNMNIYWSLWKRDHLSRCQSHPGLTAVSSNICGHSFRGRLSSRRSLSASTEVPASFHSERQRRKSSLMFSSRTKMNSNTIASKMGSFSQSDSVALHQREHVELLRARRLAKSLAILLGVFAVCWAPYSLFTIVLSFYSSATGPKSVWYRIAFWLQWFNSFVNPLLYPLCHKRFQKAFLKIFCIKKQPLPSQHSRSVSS

In the case of `Clc1ccc2nc(N3CCNCC3)n3ncnc3c2c1` [Example 92, 9-Chloro-5-(piperazin-1-yl)-[1,2,4]triazolo[1,5-c]quinazoline], the EC50 (human H4) is reported as < 10 µM and the EC50 (human H1) is reported as > 10 µM.
`CCc1ccc2nc(N3CCN(C)CC3)c3nncn3c2c1` [Example 90, 8-ethyl-4-(4-methylpiperazin-1-yl)-[1,2,4]triazolo[4,3-a]quinoxaline] was tested, and the EC50 (human H4) was < 10 µM and the EC50 (human H1) was > 10 µM.
With `Clc1cc2nc(N3CCNCC3)c3nncn3c2cc1Cl` [Example 168, 7,8-dichloro-4-(piperazin-1-yl)-[1,2,4]triazolo[4,3-a]quinoxaline] the EC50 (human H4) was < 10 µM and the EC50 (human H1) was > 10 µM.
With `CCCc1ccc2nc(N3CCN(C)CC3)c3nncn3c2c1` [Example 175, 4-(4-methylpiperazin-1-yl)-8-propyl-[1,2,4]triazolo[4,3-a]quinoxaline] the EC50 (human H4) was < 10 µM and the EC50 (human H1) was > 10 µM.
`COc1ccc2nc(N3CCNCC3)n3nc(C)nc3c2c1` [Example 102, 9-Methoxy-2-methyl-5-(piperazin-1-yl)-[1,2,4]triazolo[1,5-c]quinazoline] was tested, and the EC50 (human H4) was > 10 µM and the EC50 (human H1) was > 10 µM.
With `Clc1ccc2nc(C3=CCNCC3)c3nncn3c2c1` [Example 1, 8-chloro-4-(1,2,3,6-tetrahydropyridin-4-yl)-[1,2,4]triazolo[4,3-a]quinoxaline] the EC50 (human H4) was > 10 µM and the EC50 (human H1) was > 10 µM.
For `Cc1nc2c3ccc(C(F)(F)F)cc3nc(N3CCNCC3)n2n1` [Example 110, 2-Methyl-5-(piperazin-1-yl)-8-(trifluoromethyl)-[1,2,4]triazolo[1,5-c]quinazoline], the EC50 (human H4) was < 10 µM and the EC50 (human H1) was > 10 µM.
In the case of `CN1CC2CN(c3nc4ccc(Cl)cc4n4cnnc34)CC2C1` (centres unmarked) [Example 62, 8-chloro-4-(5-methylhexahydropyrrolo[3,4-c]pyrrol-2(1H)-yl)-[1,2,4]triazolo[4,3-a]quinoxaline], the EC50 (human H4) is reported as < 10 µM and the EC50 (human H1) is reported as > 10 µM.
For `CN1CCC(c2nc3ccc(Cl)cc3n3cnnc23)CC1` [Example 4, 8-Chloro-4-(1-methylpiperidin-4-yl)-[1,2,4]triazolo[4,3-a]quinoxaline], the EC50 (human H4) was < 10 µM and the EC50 (human H1) was > 10 µM.
With `CCc1ccc2nc(N3CCNCC3)n3nc(C)nc3c2c1` [Example 140, 9-ethyl-2-methyl-5-(piperazin-1-yl)-[1,2,4]triazolo[1,5-c]quinazoline] the EC50 (human H4) was < 10 µM and the EC50 (human H1) was > 10 µM.
`CN(CCN)c1nc2ccc(Cl)cc2n2cnnc12` [Example 79, N^1-(8-chloro-[1,2,4]triazolo[4,3-a]quinoxalin-4-yl)-N-1-methylethane-1,2-diamine] was tested, and the EC50 (human H4) was > 10 µM and the EC50 (human H1) was > 10 µM.
For `Cc1nc2c3cc(C(F)(F)F)c(Cl)cc3nc(N3CCN(C)CC3)n2n1` [Example 122, 8-chloro-2-methyl-5-(4-methylpiperazin-1-yl)-9-(trifluoromethyl)-[1,2,4]triazolo[1,5-c]quinazoline], the EC50 (human H4) was < 10 µM and the EC50 (human H1) was > 10 µM.
For `FC(F)(F)c1cc2nc(N3CCNCC3)c3nncn3c2cc1Cl` [Example 47, 8-Chloro-4-(piperazin-1-yl)-7-(trifluoromethyl)-[1,2,4]triazolo[4,3-a]quinoxaline], the EC50 (human H4) was < 10 µM and the EC50 (human H1) was > 10 µM.
`Fc1cc2nc(N3CCNCC3)c3nccn3c2cc1Cl` [Example 180, 8-chloro-7-fluoro-4-(piperazin-1-yl)imidazo[1,2-a]quinoxaline] was tested, and the EC50 (human H4) was < 10 µM and the EC50 (human H1) was < 10 µM.
In the case of `Fc1cc2c(cc1Br)nc(N1CCNCC1)c1nncn12` [Example 198, 7-bromo-8-fluoro-4-(piperazin-1-yl)-[1,2,4]triazolo[4,3-a]quinoxaline], the EC50 (human H4) is reported as < 10 µM and the EC50 (human H1) is reported as > 10 µM.
For `C/C=C/c1ccc2nc(N3CCN(C)CC3)c3nncn3c2c1` [Example 174, (E)-4-(4-methylpiperazin-1-yl)-8-(prop-1-enyl)-[1,2,4]triazolo[4,3-a]quinoxaline], the EC50 (human H4) was < 10 µM and the EC50 (human H1) was > 10 µM.
In the case of `Clc1ccc2nc(N3CCN4CCCC4C3)c3nncn3c2c1` (centres unmarked) [Example 65, 8-chloro-4-(hexahydropyrrolo[1,2-a]pyrazin-2(1H)-yl)-[1,2,4]triazolo[4,3-a]quinoxaline], the EC50 (human H4) is reported as < 10 µM and the EC50 (human H1) is reported as > 10 µM.
For `CN1CCN(c2nc3ccc(Br)cc3c3conc23)CC1` [Example 222, 8-bromo-4-(4-methylpiperazin-1-yl)isoxazolo[3,4-c]quinoline], the EC50 (human H4) was < 10 µM and the EC50 (human H1) was > 10 µM.
`Cc1nc2c3cc(F)c(F)cc3nc(N3CCN(C)CC3)n2n1` [Example 97, 8,9-Difluoro-2-methyl-5-(4-methylpiperazin-1-yl)-[1,2,4]triazolo[1,5-c]quinazoline] was tested, and the EC50 (human H4) was < 10 µM and the EC50 (human H1) was > 10 µM.
With `CN1CCN(c2nc3c(F)cc(C(F)(F)F)cc3n3cnnc23)CC1` [Example 48, 6-Fluoro-4-(4-methylpiperazin-1-yl)-8-(trifluoromethyl)-[1,2,4]triazolo[4,3-a]quinoxaline] the EC50 (human H4) was < 10 µM and the EC50 (human H1) was > 10 µM.
With `Cc1nc2c3cc(Cl)c(F)cc3nc(N3CCNCC3)n2n1` [Example 96, 9-Chloro-8-fluoro-2-methyl-5-(piperazin-1-yl)-[1,2,4]triazolo[1,5-c]quinazoline] the EC50 (human H4) was < 10 µM and the EC50 (human H1) was > 10 µM.
In the case of `Cc1nc2c3cc(C(F)(F)F)c(Cl)cc3nc(N3CCNCC3)n2n1` [Example 123, 8-chloro-2-methyl-5-(piperazin-1-yl)-9-(trifluoromethyl)-[1,2,4]triazolo[1,5-c]quinazoline], the EC50 (human H4) is reported as < 10 µM and the EC50 (human H1) is reported as > 10 µM.
For `Cc1nc2c(N3CCNCC3)nc3ccc(Cl)cc3c2[nH]1` [Example 163, 8-Chloro-2-methyl-4-piperazinylimidazo[4,5-c]quinoline], the EC50 (human H4) was > 10 µM and the EC50 (human H1) was > 10 µM.
In the case of `CN1CCN(c2nc3cc(F)c(Cl)cc3n3ccnc23)CC1` [Example 179], the EC50 (human H4) is reported as < 10 µM and the EC50 (human H1) is reported as > 10 µM.
With `Cc1nc2c(N3CCNCC3)nc3ccc(Cl)cc3c2o1` [Example 144, 8-chloro-2-methyl-4-(piperazin-1-yl)oxazolo[4,5-c]quinoline] the EC50 (human H4) was < 10 µM and the EC50 (human H1) was > 10 µM.
In the case of `NCCNc1nc2ccc(Cl)cc2n2cnnc12` [Example 70, N^1-(8-chloro-[1,2,4]triazolo[4,3-a]quinoxalin-4-yl)ethane-1,2-diamine], the EC50 (human H4) is reported as > 10 µM and the EC50 (human H1) is reported as > 10 µM.
In the case of `CN1CCN(c2nc3cc(Cl)c(F)cc3n3cnnc23)CC1` [Example 33, 7-chloro-8-fluoro-4-(4-methylpiperazin-1-yl)-[1,2,4]triazolo[4,3-a]quinoxaline], the EC50 (human H4) is reported as < 10 µM and the EC50 (human H1) is reported as > 10 µM.
For `Brc1ccc2nc(N3CCNCC3)c3nocc3c2c1` [Example 223, 8-bromo-4-(piperazin-1-yl)isoxazolo[3,4-c]quinoline], the EC50 (human H4) was < 10 µM and the EC50 (human H1) was < 10 µM.
In the case of `Cc1nc2c(N3CCNCC3)nc3ccc(C(F)(F)F)cc3c2o1` [Example 215, 2-methyl-4-(piperazin-1-yl)-8-(trifluoromethyl)oxazolo[4,5-c]quinoline], the EC50 (human H4) is reported as < 10 µM and the EC50 (human H1) is reported as > 10 µM.
For `Cc1nc2c3ccc(F)cc3nc(N3CCN(C)CC3)n2n1` [Example 107, 8-Fluoro-2-methyl-5-(4-methylpiperazin-1-yl)-[1,2,4]triazolo[1,5-c]quinazoline], the EC50 (human H4) was < 10 µM and the EC50 (human H1) was > 10 µM.
`Fc1cc2nc(N3CCNCC3)c3nncn3c2cc1Br` [Example 184, 8-bromo-7-fluoro-4-(piperazin-1-yl)-[1,2,4]triazolo[4,3-a]quinoxaline] was tested, and the EC50 (human H4) was < 10 µM and the EC50 (human H1) was > 10 µM.
`CC(C)c1nnc2c(N3CCN(C)CC3)nc3ccc(Cl)cc3n12` [Example 87, 8-chloro-1-isopropyl-4-(4-methylpiperazin-1-yl)-[1,2,4]triazolo[4,3-a]quinoxaline] was tested, and the EC50 (human H4) was < 10 µM and the EC50 (human H1) was > 10 µM.
In the case of `COc1ccc2nc(N3CCN(C)CC3)n3nc(C)nc3c2c1` [Example 101, 9-Methoxy-2-methyl-5-(4-methylpiperazin-1-yl)-[1,2,4]triazolo[1,5-c]quinazoline], the EC50 (human H4) is reported as < 10 µM and the EC50 (human H1) is reported as > 10 µM.
For `Cc1nc2c3cc(Br)ccc3nc(N3CCN(C)CC3)n2n1` [Example 135, 9-bromo-2-methyl-5-(4-methylpiperazin-1-yl)-[1,2,4]triazolo[1,5-c]quinazoline], the EC50 (human H4) was < 10 µM and the EC50 (human H1) was < 10 µM.
With `Cc1nc2c3cc(OC(F)(F)F)ccc3nc(N3CCNCC3)n2n1` [Example 134, 2-methyl-5-(piperazin-1-yl)-9-(trifluoromethoxy)-[1,2,4]triazolo[1,5-c]quinazoline hydrochloride] the EC50 (human H4) was < 10 µM and the EC50 (human H1) was > 10 µM.
For `CN1CCCN(c2nc3ccc(Cl)cc3n3cnnc23)CC1` [Example 68, 8-chloro-4-(4-methyl-1,4-diazepan-1-yl)-[1,2,4]triazolo[4,3-a]quinoxaline], the EC50 (human H4) was < 10 µM and the EC50 (human H1) was > 10 µM.
With `CN1CCN(c2nc3cc(F)c(Cl)cc3n3nnnc23)CC1` [Example 189, 8-chloro-7-fluoro-4-(4-methylpiperazin-1-yl)tetrazolo[1,5-a]quinoxaline] the EC50 (human H4) was < 10 µM and the EC50 (human H1) was > 10 µM.
In the case of `CN1CCN(c2nc3c(F)cc(Cl)cc3n3cnnc23)CC1` [Example 197, 8-chloro-6-fluoro-4-(4-methylpiperazin-1-yl)-[1,2,4]triazolo[4,3-a]quinoxaline], the EC50 (human H4) is reported as < 10 µM and the EC50 (human H1) is reported as > 10 µM.
In the case of `CN1CCN(c2nc3cc(C(F)(F)F)ccc3n3cnnc23)CC1` [Example 25, 4-(4-methylpiperazin-1-yl)-7-(trifluoromethyl)-[1,2,4]triazolo[4,3-a]quinoxaline], the EC50 (human H4) is reported as < 10 µM and the EC50 (human H1) is reported as > 10 µM.
`Clc1ccc2nc(N3CCNCC3)n3nc(Cc4ccccc4)nc3c2c1` [Example 119, 2-Benzyl-9-chloro-5-(piperazin-1-yl)-[1,2,4]triazolo[1,5-c]quinazoline] was tested, and the EC50 (human H4) was > 10 µM and the EC50 (human H1) was > 10 µM.
